Measurements: patent US10093713B2, “GIP-GLP-1 dual agonist compounds and methods” (priority 2013, dated 2018)
Like-named read-outs stand apart in the source and are kept apart here. *1 amine or outer side, *2 acyl side, *3 side chain or, on linkers, in order; H or OH if unused. Where a SMILES comes first, the peptide text is derived from it. Side-chain parts run from the residue outwards. [ ]: non-standard residue; d: D form. The star is where a group is joined. C20 diacid = O=C(O)CCCCCCCCCCCCCCCCCCC(=O)*; γGlu = O=C(O)[C@H](CCC(=O)[*:2])N[*:1]; Dap = NC[C@H](N)C(=O)O; AEEA = NCCOCCOCC(=O)O; Aib = CC(C)(N)C(=O)O

Experiments:
human GIP R = molecular target: T1, human GIP R (Homo sapiens, UniProt P48546); experiment: Human GIP receptor (GIP R) activity assay, cAMP induction (AlphaScreen) in HEK293 cells; type: cell-based; conditions: read-out: hGIP-R cAMP EC50 average value
T1 construct: expressed in transfected cells
T1 sequence (P48546 22-466): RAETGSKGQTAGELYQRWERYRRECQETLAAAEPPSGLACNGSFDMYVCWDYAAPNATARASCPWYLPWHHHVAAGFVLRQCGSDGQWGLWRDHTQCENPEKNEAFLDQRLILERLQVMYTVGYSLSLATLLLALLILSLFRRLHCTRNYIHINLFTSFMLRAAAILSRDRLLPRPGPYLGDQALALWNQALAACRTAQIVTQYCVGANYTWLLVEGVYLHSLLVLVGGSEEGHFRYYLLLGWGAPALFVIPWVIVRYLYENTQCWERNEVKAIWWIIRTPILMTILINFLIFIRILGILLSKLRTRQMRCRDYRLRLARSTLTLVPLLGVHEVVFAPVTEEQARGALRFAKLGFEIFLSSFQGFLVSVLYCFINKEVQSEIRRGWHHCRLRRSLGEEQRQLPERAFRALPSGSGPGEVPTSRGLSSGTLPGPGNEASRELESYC
In short: (§1)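 Stable HEK293 clones expressing human GIP R or GLP-1 R, seeded 1 day before; cells washed in Tyrode's buffer (10 mM HEPES, pH 7.4), stimulated, then lysed. cAMP measured by AlphaScreen bead competition (1 h, room temperature, dark). EC50 = concentration giving half-maximal cAMP elevation, from curves of absolute cAMP (nM) vs log concentration.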

human GLP-1 R = molecular target: T2, human GLP-1 R (Homo sapiens, UniProt P43220); experiment: Human GLP-1 receptor (GLP-1 R) activity assay, cAMP induction (AlphaScreen) in HEK293 cells; type: cell-based
T2 construct: expressed in transfected cells
T2 sequence (P43220 24-463): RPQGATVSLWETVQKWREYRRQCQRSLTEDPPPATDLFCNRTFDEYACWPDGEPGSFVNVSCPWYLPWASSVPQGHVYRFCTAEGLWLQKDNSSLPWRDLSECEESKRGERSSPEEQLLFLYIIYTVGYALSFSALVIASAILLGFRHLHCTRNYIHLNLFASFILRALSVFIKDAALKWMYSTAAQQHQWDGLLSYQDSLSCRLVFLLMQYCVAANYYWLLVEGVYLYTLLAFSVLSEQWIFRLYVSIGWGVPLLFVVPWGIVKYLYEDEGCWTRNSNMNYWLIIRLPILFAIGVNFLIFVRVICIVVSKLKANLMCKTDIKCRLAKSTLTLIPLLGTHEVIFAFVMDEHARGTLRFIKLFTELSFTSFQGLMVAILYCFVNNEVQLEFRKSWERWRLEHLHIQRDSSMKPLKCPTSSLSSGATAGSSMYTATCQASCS
In short: as §1

[1] = Table 2, HEK293 cells expressing human GIP R
[2] = Table 2, HEK293 cells expressing human GLP-1 R, read-out: hGLP1-R cAMP EC50 average value
[3] = Table 3, most comprehensive data
[4] = Table 3, most comprehensive data, read-out: hGLP-1-R cAMP EC50 average value

## CC[C@H](C)[C@H](NC(=O)[C@H](CO)NC(=O)[C@H](Cc1ccc(O)cc1)NC(=O)[C@H](CC(=O)O)NC(=O)[C@H](CO)NC(=O)[C@@H](NC(=O)[C@H](Cc1ccccc1)NC(=O)[C@@H](NC(=O)CNC(=O)[C@H](CCC(=O)O)NC(=O)C(C)(C)NC(=O)[C@@H](N)Cc1ccc(O)cc1)[C@@H](C)O)[C@@H](C)O)C(=O)N[C@@H](Cc1ccc(O)cc1)C(=O)N[C@@H](CC(C)C)C(=O)N[C@@H](CCC(=O)O)C(=O)N[C@@H](CCCCN)C(=O)N[C@@H](CCCCNC(=O)COCCOCCNC(=O)COCCOCCNC(=O)CC[C@H](NC(=O)CCCCCCCCCCCCCCCCCCC(=O)O)C(=O)O)C(=O)N[C@@H](C)C(=O)N[C@@H](CCC(N)=O)C(=O)N[C@@H](CCCNC(=N)N)C(=O)N[C@@H](C)C(=O)N[C@@H](Cc1ccccc1)C(=O)N[C@H](C(=O)N[C@@H](CCC(=O)O)C(=O)N[C@@H](Cc1c[nH]c2ccccc12)C(=O)N[C@@H](CC(C)C)C(=O)N[C@@H](CC(C)C)C(=O)N[C@@H](CCCNC(=N)N)C(=O)N[C@@H](C)C(N)=O)C(C)C [Compound 29] (H-Y[Aib]EGTFTSDYSIYLEKK([AEEA-AEEA-γGlu-C20 diacid])AQRAFVEWLLRA-NH2)
Human GIP R; [1]
  EC50: 0.025 nM
Human GLP-1 R; [2]
  EC50: 0.033 nM

## CC[C@H](C)[C@H](NC(=O)[C@H](CO)NC(=O)[C@H](CC(C)C)NC(=O)[C@H](CC(=O)O)NC(=O)[C@H](CO)NC(=O)[C@@H](NC(=O)[C@H](Cc1ccccc1)NC(=O)[C@@H](NC(=O)CNC(=O)[C@H](CCC(=O)O)NC(=O)C(C)(C)NC(=O)[C@@H](N)Cc1ccc(O)cc1)[C@@H](C)O)[C@@H](C)O)C(=O)N[C@@H](C)C(=O)N[C@@H](CC(C)C)C(=O)N[C@@H](CCC(=O)O)C(=O)N[C@@H](CCCCN)C(=O)N[C@@H](CCCCNC(=O)COCCOCCNC(=O)COCCOCCNC(=O)CC[C@H](NC(=O)CCCCCCCCCCCCCCCCCCC(=O)O)C(=O)O)C(=O)N[C@@H](C)C(=O)N[C@@H](CCC(N)=O)C(=O)N[C@@H](CCCNC(=N)N)C(=O)N[C@@H](C)C(=O)N[C@@H](Cc1ccccc1)C(=O)N[C@H](C(=O)N[C@@H](CCC(=O)O)C(=O)N[C@@H](Cc1c[nH]c2ccccc12)C(=O)N[C@@H](CC(C)C)C(=O)N[C@@H](CC(C)C)C(=O)N[C@@H](C)C(=O)N[C@@H](CCC(N)=O)C(=O)NCC(=O)N1CCC[C@H]1C(=O)N[C@@H](CO)C(=O)N[C@@H](CO)C(=O)NCC(=O)N[C@@H](C)C(=O)N1CCC[C@H]1C(=O)N1CCC[C@H]1C(=O)N1CCC[C@H]1C(=O)N[C@@H](CO)C(N)=O)C(C)C [Compound 33] (H-Y[Aib]EGTFTSDLSIALEKK([AEEA-AEEA-γGlu-C20 diacid])AQRAFVEWLLAQGPSSGAPPPS-NH2)
Human GIP R; [1]
  EC50: 0.009 nM
Human GIP R; [3]
  EC50: 0.009 nM
Human GLP-1 R; [2]
  EC50: 0.014 nM

## CC[C@H](C)[C@H](NC(=O)[C@H](CO)NC(=O)[C@H](Cc1ccc(O)cc1)NC(=O)[C@H](CC(=O)O)NC(=O)[C@H](CO)NC(=O)[C@@H](NC(=O)[C@H](Cc1ccccc1)NC(=O)[C@@H](NC(=O)CNC(=O)[C@H](CCC(=O)O)NC(=O)C(C)(C)NC(=O)[C@@H](N)Cc1ccc(O)cc1)[C@@H](C)O)[C@@H](C)O)C(=O)N[C@@H](Cc1ccc(O)cc1)C(=O)N[C@@H](CC(C)C)C(=O)N[C@@H](CC(=O)O)C(=O)N[C@@H](CCCCN)C(=O)N[C@@H](CCCCNC(=O)COCCOCCNC(=O)COCCOCCNC(=O)CCCCCCCCCCCCCCCCCCC(=O)O)C(=O)N[C@@H](C)C(=O)N[C@@H](CCC(N)=O)C(=O)N[C@@H](CCCNC(=N)N)C(=O)N[C@@H](C)C(=O)N[C@@H](Cc1ccccc1)C(=O)N[C@H](C(=O)N[C@@H](CCC(=O)O)C(=O)N[C@@H](Cc1c[nH]c2ccccc12)C(=O)N[C@@H](CC(C)C)C(=O)N[C@@H](CC(C)C)C(=O)N[C@@H](C)C(=O)N[C@@H](CCC(N)=O)C(=O)NCC(=O)N1CCC[C@H]1C(=O)N[C@@H](CO)C(=O)N[C@@H](CO)C(=O)NCC(=O)N[C@@H](C)C(=O)N1CCC[C@H]1C(=O)N1CCC[C@H]1C(=O)N1CCC[C@H]1C(=O)N[C@@H](CO)C(N)=O)C(C)C [Compound 35] (H-Y[Aib]EGTFTSDYSIYLDKK([AEEA-AEEA-C20 diacid])AQRAFVEWLLAQGPSSGAPPPS-NH2)
Human GIP R; [3]
  EC50: 0.016 nM
Human GLP-1 R; [4]
  EC50: 0.012 nM

## CC[C@H](C)[C@H](NC(=O)[C@H](CO)NC(=O)[C@H](Cc1ccc(O)cc1)NC(=O)[C@H](CC(=O)O)NC(=O)[C@H](CO)NC(=O)[C@@H](NC(=O)[C@H](Cc1ccccc1)NC(=O)[C@@H](NC(=O)CNC(=O)[C@H](CCC(=O)O)NC(=O)C(C)(C)NC(=O)[C@@H](N)Cc1ccc(O)cc1)[C@@H](C)O)[C@@H](C)O)C(=O)N[C@@H](Cc1ccc(O)cc1)C(=O)N[C@@H](CC(C)C)C(=O)N[C@@H](CC(=O)O)C(=O)N[C@@H](CCCCN)C(=O)N[C@@H](CCCCNC(=O)CC[C@H](NC(=O)CCCCCCCCCCCCCCCCCCC(=O)O)C(=O)O)C(=O)N[C@@H](C)C(=O)N[C@@H](CCC(N)=O)C(=O)N[C@@H](CCCNC(=N)N)C(=O)N[C@@H](C)C(=O)N[C@@H](Cc1ccccc1)C(=O)N[C@H](C(=O)N[C@@H](CCC(=O)O)C(=O)N[C@@H](Cc1c[nH]c2ccccc12)C(=O)N[C@@H](CC(C)C)C(=O)N[C@@H](CC(C)C)C(=O)N[C@@H](C)C(=O)N[C@@H](CCC(N)=O)C(=O)NCC(=O)N1CCC[C@H]1C(=O)N[C@@H](CO)C(=O)N[C@@H](CO)C(=O)NCC(=O)N[C@@H](C)C(=O)N1CCC[C@H]1C(=O)N1CCC[C@H]1C(=O)N1CCC[C@H]1C(=O)N[C@@H](CO)C(N)=O)C(C)C [Compound 36] (H-Y[Aib]EGTFTSDYSIYLDKK([γGlu-C20 diacid])AQRAFVEWLLAQGPSSGAPPPS-NH2)
Human GIP R; [3]
  EC50: 0.01 nM
Human GLP-1 R; [4]
  EC50: 0.015 nM

## CC[C@H](C)[C@H](NC(=O)[C@H](CO)NC(=O)[C@H](Cc1ccc(O)cc1)NC(=O)[C@H](CC(=O)O)NC(=O)[C@H](CO)NC(=O)[C@@H](NC(=O)[C@H](Cc1ccccc1)NC(=O)[C@@H](NC(=O)CNC(=O)[C@H](CCC(=O)O)NC(=O)C(C)(C)NC(=O)[C@@H](N)Cc1ccc(O)cc1)[C@@H](C)O)[C@@H](C)O)C(=O)N[C@@H](Cc1ccc(O)cc1)C(=O)N[C@@H](CC(C)C)C(=O)N[C@@H](CC(=O)O)C(=O)N[C@@H](CCCCN)C(=O)N[C@@H](CCCCNC(=O)COCCOCCNC(=O)COCCOCCNC(=O)[C@H](CN)NC(=O)CCCCCCCCCCCCCCCCCCC(=O)O)C(=O)N[C@@H](C)C(=O)N[C@@H](CCC(N)=O)C(=O)N[C@@H](CCCNC(=N)N)C(=O)N[C@@H](C)C(=O)N[C@@H](Cc1ccccc1)C(=O)N[C@H](C(=O)N[C@@H](CCC(=O)O)C(=O)N[C@@H](Cc1c[nH]c2ccccc12)C(=O)N[C@@H](CC(C)C)C(=O)N[C@@H](CC(C)C)C(=O)N[C@@H](C)C(=O)N[C@@H](CCC(N)=O)C(=O)NCC(=O)N1CCC[C@H]1C(=O)N[C@@H](CO)C(=O)N[C@@H](CO)C(=O)NCC(=O)N[C@@H](C)C(=O)N1CCC[C@H]1C(=O)N1CCC[C@H]1C(=O)N1CCC[C@H]1C(=O)N[C@@H](CO)C(N)=O)C(C)C [Compound 37] (H-Y[Aib]EGTFTSDYSIYLDKK([AEEA-AEEA-Dap-C20 diacid])AQRAFVEWLLAQGPSSGAPPPS-NH2)
Human GIP R; [3]
  EC50: 0.017 nM
Human GLP-1 R; [4]
  EC50: 0.014 nM

## CC[C@H](C)[C@H](NC(=O)[C@H](CO)NC(=O)[C@H](Cc1ccc(O)cc1)NC(=O)[C@H](CC(=O)O)NC(=O)[C@H](CO)NC(=O)[C@@H](NC(=O)[C@H](Cc1ccccc1)NC(=O)[C@@H](NC(=O)CNC(=O)[C@H](CCC(=O)O)NC(=O)C(C)(C)NC(=O)[C@@H](N)Cc1ccc(O)cc1)[C@@H](C)O)[C@@H](C)O)C(=O)N[C@@H](C)C(=O)N[C@@H](CC(C)C)C(=O)N[C@@H](CC(=O)O)C(=O)N[C@@H](CCCCN)C(=O)N[C@@H](CCCCNC(=O)COCCOCCNC(=O)COCCOCCNC(=O)CC[C@H](NC(=O)CCCCCCCCCCCCCCCCCCC(=O)O)C(=O)O)C(=O)N[C@@H](C)C(=O)N[C@@H](CCC(N)=O)C(=O)N[C@@H](CCCNC(=N)N)C(=O)N[C@@H](C)C(=O)N[C@@H](Cc1ccccc1)C(=O)N[C@H](C(=O)N[C@@H](CCC(=O)O)C(=O)N[C@@H](Cc1c[nH]c2ccccc12)C(=O)N[C@@H](CC(C)C)C(=O)N[C@@H](CC(C)C)C(=O)N[C@@H](C)C(=O)N[C@@H](CCC(N)=O)C(=O)N[C@@H](CCCCN)C(=O)N1CCC[C@H]1C(=O)N[C@@H](CO)C(=O)N[C@@H](CO)C(=O)NCC(=O)N[C@@H](C)C(=O)N1CCC[C@H]1C(=O)N1CCC[C@H]1C(=O)N1CCC[C@H]1C(=O)N[C@@H](CO)C(N)=O)C(C)C [Compound 38] (H-Y[Aib]EGTFTSDYSIALDKK([AEEA-AEEA-γGlu-C20 diacid])AQRAFVEWLLAQKPSSGAPPPS-NH2)
Human GIP R; [3]
  EC50: 0.005 nM
Human GLP-1 R; [4]
  EC50: 0.012 nM
